The nature of series [1]: Aqueous solubility of the compound in PBS buffer at pH 7.4 incubated for 72 hrs by HPLC analysis. It is filed as physicochemical.
The nature of series [2]: Metabolic stability in human liver microsomes assessed as metabolic turnover at 1 uM measured after 30 mins in presence of NADPH by LC/MS analysis. The series is classed as ADME, Microsome. The following applies: read-out: Drug metabolism.
Series [3] can be described thus: Metabolic stability in rat liver microsomes assessed as metabolic turnover at 1 uM measured after 30 mins in presence of NADPH by LC/MS analysis. Conditions: read-out: Drug metabolism. It is filed as ADME, Microsome.
Series [4] in a line: Clearance in male Sprague-Dawley rat at 0.5 mg/kg, iv. It is filed as ADME, organism-based. The following applies: in vivo.
Series [5] can be described thus: Unbound clearance in male Sprague-Dawley rat at 0.5 mg/kg, iv. It is filed as ADME, organism-based. Conditions: in vivo.
A short description of series [6]: Oral bioavailability in male Sprague-Dawley rat at 2 mg/kg. It is filed as ADME, organism-based. The following applies: in vivo.
Series [7] can be described thus: Clearance in male Sprague-Dawley rat at 0.72 mg/kg, iv. It is filed as ADME, organism-based. The following applies: in vivo.
The nature of series [8]: Clearance in male Sprague-Dawley rat at […], iv. It is filed as ADME, organism-based. The following applies: in vivo, dose 0.71 mg/kg.
A short description of series [9]: Clearance in male Sprague-Dawley rat at 0.8 mg/kg, iv. The following applies: in vivo. The series is classed as ADME, organism-based.

SMILES strings stand for the structures. ≈ marks a conversion by molar mass, not a printed value. Bounds are passed on as bounds.

In [1], `C[C@H](Nc1ncnc(N)c1C#N)c1nc2ccc(F)cc2n1-c1ccccc1` came in with a solubility at 72 h of 374 µM (≈ 140 µg/mL). Moreover, the metabolised at 0.5 h, 1 µM in [2] was less than 10%; in series [3], 26%. Also, in series [4], the clearance is 40.2 mL/min/kg. In [5], this compound gave a CL free of 447 mL/min/kg.
Regarding `C[C@H](Nc1ncnc(N)c1C#N)c1nc2ccc(F)cc2n1-c1cncc(F)c1`, in series [1], the concentration in solution (solubility at 72 h) was 500 µM (≈ 196 µg/mL). In addition, the metabolised at 0.5 h, 1 µM in series [2] and in series [3] was less than 10% each time. This compound also had a clearance in [4] of 16.5 mL/min/kg. The CL free in series [5] came out at 51.7 mL/min/kg. For the same compound, the bioavailability in [6] turned out to be 41%.
For the compound `C[C@H](Nc1ncnc(N)c1C#N)c1nc2ccc(F)cc2n1-c1cccc(F)c1`, the concentration in solution in series [1] (solubility at 72 h) was 401 µM (≈ 157 µg/mL). For the same compound, the metabolised at 0.5 h, 1 µM in series [2] turned out to be 15%; in series [3], 28%. This compound showed a clearance in series [7] of 46 mL/min/kg. The CL free in [5] was 460 mL/min/kg.
Turning to `C[C@H](Nc1ncnc(N)c1C#N)c1nc2ccc(F)cc2n1-c1cccnc1`, the solubility at 72 h in series [1] came out at 474 µM (≈ 177 µg/mL). Moreover, the metabolised at 0.5 h, 1 µM in series [2] and in series [3] was less than 10% throughout. This compound had a CL free in [5] of 43.3 mL/min/kg. This compound also had a bioavailability in series [6] of 45%. Moreover, the clearance in series [8] was 15.5 mL/min/kg.
On to `C[C@H](Nc1ncnc(N)c1C#N)c1nc2ccc(F)cc2n1-c1ccc(F)cc1`, for which the solubility at 72 h in [1] came out at 353 µM (≈ 138 µg/mL). The metabolised at 0.5 h, 1 µM is less than 10% in series [2] and 22% in series [3]. The same compound showed a clearance in series [4] of 29.7 mL/min/kg. Besides, the CL free in series [5] stood at 300 mL/min/kg.
Compound `C[C@H](Nc1ncnc(N)c1C#N)c1nc2ccc(F)cc2n1-c1ccccn1` displayed a solubility at 72 h in series [1] of 500 µM (≈ 187 µg/mL). Moreover, the metabolised at 0.5 h, 1 µM in [2] and in [3] was less than 10% throughout. Moreover, the clearance in [4] is 16.2 mL/min/kg. In addition, in series [5], the CL free was 73.3 mL/min/kg. Besides, the bioavailability in series [6] is 58%.
In series [1], `C[C@H](Nc1ncnc(N)c1C#N)c1nc2ccc(F)cc2n1-c1cccc(S(C)(=O)=O)c1` displayed a solubility at 72 h of 500 µM (≈ 226 µg/mL). The metabolised at 0.5 h, 1 µM in series [2] and in series [3] was less than 10% in each case. In series [9], the clearance is 71.7 mL/min/kg. In [5], this compound had a CL free of 205 mL/min/kg.
`C[C@H](Nc1ncnc(N)c1C#N)c1nc2ccc(F)cc2n1-c1cc(F)cc(F)c1` yielded a solubility at 72 h in [1] of 305 µM (≈ 125 µg/mL). The metabolised at 0.5 h, 1 µM in [2] came out at 11%; in [3] it was 30%. The same compound gave a clearance in series [4] of 44 mL/min/kg. Besides, the CL free in series [5] came to 338 mL/min/kg.

Values taken from ChEMBL document CHEMBL4715688, “Discovery, Optimization, and in Vivo Evaluation of Benzimidazole Derivatives AM-8508 and AM-9635 as Potent and Selective PI3Kδ Inhibitors” (J Med Chem, 2016).
